In US9763451B2, “Method for improved use of the production potential of genetically modified plants” (Bayer Intellectual Property GmbH, priority 2008, dated 2017):

Tests used:
Assay type in all cases: in vivo
Aphis gossypii [1] = experiment: Aphis gossypii test (drench application) on genetically modified cotton; conditions: 0.8 ppm
From the text: (§1) A synergistic effect in insecticides and acaricides is always present when the action of the active compound combinations exceeds the total of the actions of the active compounds when applied individually.
(§2) The expected action for a given combination of two active compounds can be calculated as follows, using the formula of S. R. Colby, Weeds 15 (1967), 20-22:
(§3) • X is the kill rate, expressed as % of the untreated control, when employing active compound A at an application rate of m g/ha or in a concentration of m ppm, • Y is the kill rate, expressed as % of the untreated control, when employing the transgenic seed and • E is the kill rate, expressed as % of the untreated control, when employing the active compound A at application rates of m g/ha or in a concentration of m ppm and the transgenic seed, then
(§4) If the actual insecticidal kill rate exceeds the calculated value, the action of the combination is superadditive, i.e. a synergistic effect is present. In this case, the actually observed kill rate must exceed the value calculated using the above formula for the expected kill rate (E).
(§5) Individual potted genetically modified cotton plants with Lepidoptera resistance and Glyphosate resistance are treated with the desired product against the cotton aphid (Aphis gossypii).
(§6) After the desired period of time, the kill in % is determined. 100% means that all the aphids have been killed; 0% means that none of the aphids have been killed.

Aphis gossypii [2] = experiment: Aphis gossypii test (foliar application) on genetically modified cotton; conditions: 20 ppm
From the text: as §1, §2, §3, §4, §5, §6

Spodoptera frugiperda = Spodoptera frugiperda test (foliar application) on genetically modified maize; conditions: compound alone, 100 ppm
From the text: as §1, §2, §3, §4
Pots with in each case 5 genetically modified maize plants with Lepidoptera, Coleoptera and/or herbicide resistances are treated in 2 replications against the armyworm (Spodoptera frugiperda).
After the desired period of time, the kill in % is determined. […]

[3] = combined with cotton plant containing cry gene and Glyphosate resistance gene, expected kill

CC(c1ccc(C(F)(F)F)nc1)S(C)(=O)=NC#N (stereo not shown) [compound I-8]
Kill in % after 2d, found (Aphis gossypii [1]; combined with cotton plant containing cry gene (Lepidoptera resistance) and Glyphosate resistance gene, after 2 d): 90%
Kill in % after 2d, calc. (Colby formula) (Aphis gossypii [1]; [3]): 70%
Kill in % after 2d (Aphis gossypii [1]; active compound alone, after 2 d): 70%
Kill in % after 1d, found (Aphis gossypii [2]; combined with cotton plant containing cry gene (Lepidoptera resistance) and Glyphosate resistance gene, after 1 d): 85%
Kill in % after 1d, calc. (Colby formula) (Aphis gossypii [2]; [3]): 65%
Kill in % after 1d (Aphis gossypii [2]; active compound alone, after 1 d): 65%
Kill in % after 4d (Spodoptera frugiperda): 0%
